Measured values reported in article PMC4105567, “Aurora Kinases as Druggable Targets in Pediatric Leukemia: Heterogeneity in Target Modulation Activities and Cytotoxicity by Diverse Novel Therapeutic Agents” (PLoS ONE, 2014).
Where two headings read alike, the source gives them in different places.

How the values were obtained:
SEM B-ALL cell line = assay: Cytotoxicity assay, SEM; format: cell-based; details: Homo sapiens, 96 h, four days in culture, Alamar blue assay or automated microscopy, ± SD, three experiments
Experimental: (§1) Cell lines were cultured in Opti-MEM medium (Gibco, Life Technologies Corporation, Burlington, Ontario) supplemented with 10% heat inactivated fetal bovine serum (FBS) (Gibco), 100 units/ml penicillin and 100 units/ml streptomycin (Gibco) and 0.05 mM 2-mercaptoethanol (Sigma-Aldrich, Oakville, Ontario) in T25 flasks (Nalge Nunc, Rochester, New York) or T75 flasks (Corning Incorporated, Corning, New York). All cell cultures were maintained at 37°C in a humidified incubator with 5% CO2.
(§2) For cytotoxicity profiling of Aurora kinase inhibitors against leukemia cell lines, inhibitors or vehicle control (DMSO, Sigma-Aldrich) were diluted in 100 µl of Opti-MEM per well in 96 well plates (Grenier Bio-One, Monroe, North Carolina) in triplicate at final concentrations ranging from 1×10^−6 to 10 µM. 1×10^4 cells per well were seeded and plates were incubated for 4 days. Following incubation for 4 days, cell survival was quantified by Alamar blue assay (Invitrogen) or automated inverted microscopy using the Celigo Cell Cytometer (Cyntellect, San Diego, California). […] During this period of incubation, the absorbance at 570–620 nm was measured (Opsys MR Plate Reader, Dynex Technologies, Chantilly, Virginia) at various time points, depending on the cell line or sample. Percent survival was calculated by comparing the absorbance ratio of the test well to the control well multiplied by 100%, as indicated in the following formula: […]
(§3) For automated inverted microscopy, the number of cells in each well was determined using the direct cell counting application as described previously. Briefly, following adjustment of image acquisition settings for bright-field imaging, the wells containing cells and appropriate dilutions of inhibitors were individually scanned. Based on these images, analysis parameters, including intensity threshold and cell diameter, were modified for optimal inclusion of viable cells in treated and control wells. These parameters were applied for subsequent replicates involving the same leukemia cell line or sample. The percent survival was then calculated as a ratio of the number of cells in treated wells to the number of cells in control wells multiplied by 100%. Given that Aurora kinase inhibitors interfere with cytokinesis, cells that are committed to death may still contain enlarging but intact cytoplasmic content before the eventual loss of cytoplasmic membrane integrity. The accuracy of Alamar blue assay may be, in theory, affected by the timing of these events.

[1] = system: normal bone marrow derived CD34+ cells; assay: Hematopoietic colony forming cell assay; format: cell-based, human; details: myeloid and erythroid colonies from CD34+ cells; for colony formation at 0.1–10 µM: 14 days
Experimental: The hematopoietic colony forming cell assay was conducted based on a protocol outlined by StemCell Technologies (Vancouver, British Columbia, Canada). To begin, CD34^+ cells were isolated from residual normal bone marrow transplant specimens obtained after informed consent. Next, several concentrations of Aurora A Inhibitor I, Hesperadin, ZM447439 and AT9283 (0.01, 0.1, 1, 10 µM) and DMSO (Sigma-Aldrich, Oakville, Ontario) (10 µM) were added to separate tubes of MethoCult (StemCell Technologies), a methylcellulose matrix containing recombinant human cytokines stem cell factor (rh SCF), granulocyte macrophage colony-stimulating factor (rh GM-CSF), interleukin-3 (rh IL-3), granulocyte colony stimulating factor (rh G-CSF) and erythropoietin (rh EPO). Following the addition of CD34^+ cells at a final concentration of 5×10^3 cells per dish, the tubes were vortexed and allowed to stand for 5 minutes at room temperature. Next, the MethoCult mixtures were be dispensed into 35 mm dishes (Corning Incorporated, Corning, New York) through blunt end needles (StemCell Technologies) and 5 ml syringes (BD Biosciences, Mississauga, Ontario) at a volume of 1.1 ml per dish. The medium was evenly distributed across the surface of each dish by gentle tilting and rotation. The dishes were then placed in a 150 mm tissue culture dish (BD Biosciences) containing additional 35 mm dishes with sterile water to maintain humidity. The tissue culture dish was then placed at 37°C in a humidified incubator containing 5% CO2 for 14 days. The number of myeloid and erythroid derived colonies in both the treated and control dishes were counted and compared.

[2] = system: Patient #1 B-ALL primary leukemia cells; assay: Cytotoxicity assay, primary sample Patient #1; format: cell-based, human; details: four days in culture, Alamar blue assay or automated microscopy, one complete study
Experimental: (§4) These include B-ALL (Patient #1), relapsed AML (Patient #2), AML/CML (Patient #3), infant ALL (Patient #4), and initial ALL presenting with secondary AML (Patient #5). […] The diluted sample was then layered on a Ficoll-Paque (GE Healthcare, Piscataway, New Jersey) gradient at a 1∶2 ratio of Ficoll to diluted sample. Samples were then centrifuged 1800 rpm for 20 minutes at room temperature. The buffy coat was removed with a pipette and transferred to a new centrifuge tube and diluted with PBS. After an additional centrifugation at 1200 rpm, the white blood cell pellet was washed with PBS and centrifuged one last time. Cells were re-suspended in Opti-MEM and viable cells were counted using trypan blue (Invitrogen, Life Technologies Corporation, Burlington, Ontario) exclusion on a haemocytometer. An identical protocol was followed for the isolation of white blood cells, referred to as “normal lymphocytes” in the following paragraphs, from healthy volunteers. Samples grown in culture for up to six months were cultured in Opti-MEM medium supplemented with 10% heat inactivated FBS, penicillin/streptomycin and 2-mercaptoethanol.
as §2, §3

KOPN8 B-ALL cell line = assay: Cytotoxicity assay, KOPN8; format: cell-based, human; details: four days in culture, Alamar blue assay or automated microscopy, ± SD, three experiments
Experimental: as §1, §2, §3

[3] = system: normal cells versus leukemia cell lines; assay: Comparison of cytotoxicity IC50 values, normal cells versus leukemia cell lines; format: cell-based, human; details: normal lymphocytes and bone marrow stroma versus leukemia cell lines of Table 2
Experimental: as §2, §3

[4] = system: Patient #5 ALL/AML primary leukemia cells; assay: Cytotoxicity assay, primary sample Patient #5; format: cell-based, human; details: primary sample, four days in culture, Alamar blue assay or automated microscopy, one complete study, read-out: IC50, Patient #5 ALL/AML
Experimental: as §4, §2, §3

With `O=C(Nc1c[nH]nc1-c1nc2ccc(CN3CCOCC3)cc2[nH]1)NC1CC1` [AT9283] the IC50 (SEM B-ALL cell line) was 40 ± 20 nM, the “colony formation at 0.1–10 µM” value [1] was “completely inhibited the formation of both types of colonies” and the IC50 ([2]; Homo sapiens, 96 h) was 3 nM. For the same molecule, the IC50 (KOPN8 B-ALL cell line; Homo sapiens, KOPN-8, 96 h) was 2 ± 1 nM, the “IC50 values for the normal cells compared with IC50 values for the leukemia cell lines (potential therapeutic window)” value [3] was “higher than the IC50 values for the leukemia cell lines” and the IC50 ([4]; Homo sapiens, 96 h) was 0.3 nM.
`CCN1CCN(C(=O)Cc2ccc(Nc3ncc(F)c(Nc4ccc(C(=O)Nc5ccccc5Cl)cc4)n3)cc2)CC1` [Aurora A Inhibitor I] was tested, and the “concentration up to which colony formation was not affected” value ([1]; 14 days in methylcellulose culture, tested 0.01, 0.1, 1, 10 µM) was no more than 100 nM, the IC50 [2] was 800 nM and the IC50 (KOPN8 B-ALL cell line) was 800 ± 50 nM. The “IC50 values for the normal cells compared with IC50 values for the leukemia cell lines (potential therapeutic window)” value [3] was “lower than the IC50 values for the normal cells, but not as pronounced” and the IC50 [4] was 6 nM.
For `CCS(=O)(=O)Nc1ccc2c(c1)/C(=C(/Nc1ccc(CN3CCCCC3)cc1)c1ccccc1)C(=O)N2` [Hesperadin], the IC50 (SEM B-ALL cell line) was 1 ± 0.5 nM, the “colony formation at 0.1–10 µM” value [1] was “completely inhibited the formation of both types of colonies” and the IC50 ([2]; Homo sapiens, 96 h) was 0.04 nM. The IC50 (KOPN8 B-ALL cell line; Homo sapiens, KOPN-8, 96 h) was 0.1 nM, the “IC50 values for the normal cells compared with IC50 values for the leukemia cell lines (potential therapeutic window)” value [3] was “higher than the IC50 values for the leukemia cell lines” and the IC50 ([4]; Homo sapiens, 96 h) was 0.01 nM.
